Experimental data taken from patent US6093738A, “Proton pump inhibitors” (priority 1997, dated 2000).

Experiments:
[1] = tested on: cAMP stimulated acid secretion, mouse gastric glands; test: cAMP stimulated acid secretion (14C-aminopyrine accumulation) in isolated mouse gastric glands; assay type: cell-based; settings: 100 μM, 60 min, 37° C.
Method: (§1) Acid secretion is measured indirectly by the accumulation of the weak base ^14 C-aminopyrine in the isolated murine gastric glands of mouse. The assay is performed in polypropylene eppendorf tubes containing 0.5 mL of resuspended mouse gastric glands. In addition, tubes contain the tested drug, acid secretagogues (e.g. histamine, di-butyryl cyclic AMP (cAMP), carbachol) and ^14 C-aminopyrine. Tubes are incubated for 60 min. at 37° C. and continuously rotated. The reaction is stopped by centrifugation of the gland suspension for five min. at 1500 g. Supernatant is aspirated leaving the pellet containing intact gastric glands. The pellet is washed extensively and digested overnight in 1 mL of Protosol (Amersham). After neutralisation with acetic acid and addition of scintillation fluid, the radioactivity is counted in a beta-counter (Beckman). The amount of radioactivity trapped in the pellet corresponds directly with the amount of acid being secreted. Each experimental point is done in triplicate. In each experiment, energy independent consumption was estimated with 0.1 mM of dinitrophenol and basal acid secretion in the absence of acid stimulants. These values were then subtracted from corresponding results in order to calculate basal or secretagogue stimulated acid secretion. […] Each experiment is repeated a number of times and all results are expressed as a % of the maximum stimulation.

[2] = tested on: gastric acid secretion, mouse gastric glands; test: In vitro inhibition of gastric acid secretion (14C-aminopyrine accumulation) in isolated mouse gastric glands, secretagogue not stated; assay type: cell-based; settings: 1 h, 60 min, 37° C., read-out: ED50 (the source's name)
[3] = tested on: histamine stimulated acid secretion, mouse gastric glands; test: Histamine stimulated acid secretion (14C-aminopyrine accumulation) in isolated mouse gastric glands; assay type: cell-based; settings: 100 μM, 60 min, 37° C.
Method: as §1

[4] = Reaction with phenethyl mercaptan in methanol (chemical model of proton pump thiol reactivity); settings: for conversion to 2-mercaptobenzimidazole on reaction with phenethyl mercaptan / time after which reaction with phenethyl mercaptan is complete: methanol
Excerpt: A useful in vitro model for obtaining an indication of the reactivity of thiadiazole compound towards the proton pump enzyme for deactivation thereof is provided by the reactivity of the thiadiazole compound towards phenethylmercaptan. The chemical mechanism of this process, as applied to the thiadiazolobenzimidazole compounds of the present invention, is diagrammatically illustrated on FIG. 3 of the accompanying drawings. The first stage of reaction forms a disulfide compound by cleavage of the S--N bond of the thiadiazole ring. This disulfide X cannot be isolated, since it reacts very rapidly with a second mercaptan group to give the disulfide of phenethylmercaptan and intermediate XI. In connection with the actual enzyme, the second step involving attack of another thiol group would not happen because of steric factors inhibiting the approach of two enzymes, or would lead to the formation of a disulfide bond in the event that another proximal thiol group is present. In both cases, this would lead to the inhibition of the enzyme. In some cases, intermediate XI further degrades to 2-mercaptobenzimidazole VIII or 1-cyano-2-mercaptobenzimidazole XII. A similar mechanism is followed by the imidazothiadiazoles of the present invention. Further description and discussion of this reaction and test method is included in the specific example section hereof.
To a solution of 23 mg of 3-(dimethylamino)-1,2,4-thiadiazolo[4,5-a]benzimidazole in 10 mL of methanol was added 360 μL of phenethyl mercaptan. After 1 min, the reaction is complete. The solvent was evaporated and the crude material was purified by chromatography to give 15 mg of N^1, N^1 -dimethyl-2-mercapto-1-benzimidazolylamidine: ^1 H NMR (DMSO-d6) δ 7.3-7.0 (m, 4H, 4×ArH), 3.35 (br s, 2H, NH, SH), 2.88 (s, 6H, 2×NCH3) ppm; IR (KBr) .nu. 3210, 1641, 1475, 1452, 1407, 1319 cm^-1; MS m/z 220 (M+), 150 (M^+ -Me2 NC=NH).
To a solution of 23 mg of 3-methoxy-1,2,4-thiadiazolo [4,5-a]benzimidazole in 10 mL of methanol was added 376 μL of phenethyl mercaptan. After 1 min, the reaction is complete. The methyl 2-mercapto-1-benzimidazolecarboximidate was identified as the major reaction product of the reaction: ^1 H NMR (DMSO-d6) δ 13.45 (br s, 1H, SH or NH), 9.8 (s, 1H, NH or SH), 7.7 (d, 1H, J=8 Hz, ArH), 7.35-7.2 (m, 3H, 3×ArH), 3.95 (s, 3H, OCH3) ppm; IR (KBr) .nu. 3437, 3095, 1679, 1450, 1440, 1376, 1193, 735 cm^-1; MS m/z=207 (M^+), 150 (M^+ -MeOC=NH)
To a suspension of 26 mg of 3-(oxophenylmethyl)-1,2,4-thiadiazolo[4,5-a]benzimidazole in 10 mL methanol was added 31 μL of phenethyl mercaptan.
To a suspension of 25 mg of 3-[hydroxy(4-methoxy-3,5-dimethyl-2-pyridyl)methyl]-1,2,4-thiadiazolo[4,5- a]benzimidazole in 10 mL methanol was added 250 μL of phenethyl mercaptan.
To a suspension of 31 mg of 3-[(4-methylphenyl) sulfonyl]-1,2,4-thiadiazolo[4,5-a]benzimidazole in 10 mL methanol was added 313 μL of phenethyl mercaptan.
Phenethyl mercaptan (120 μL, 0.90 mmol) was added to a suspension of 3-[(4-4-methoxy-3,5-dimethyl-2-pyridyl) oxomethyl]-1,2,4-thiadiazolo[4,5-a]benzimidazole (300 mg, 0.887 mmol) in methanol (150 ml) and 0.1 M hydrochloric acid (38 mL). After stirring the mixture at room temperature for 51 h, the mixture was neutralized to pH 6 with aqueous sodium bicarbonate and extracted with ethyl ether. The ether layer was dried on sodium sulfate and evaporated.

[5] = Reaction of 1,2,4-thiadiazolo[4,5-a]benzimidazole derivative with 2-mercaptoethanol, determination of t1/2 values; settings: compound 5×10^-3 M, 2-mercaptoethanol 1.15×10^-2 M, methanol, R.T., HPLC; 5000 µM
Method: The column is eluted with 70% 50 mM ammonium acetate; 30% acetonitrile as the mobile phase.
Percentage reaction completion was calculated as follows:
At time 0, 100% starting material remained unreacted.
At time t, % of unreacted starting material={hsample /hint.std at
time t}/{hsample /hint.std at time O}*100%.

Solubility in water = assay type: physicochemical
[6] = Acid stability in 6 molar hydrochloric acid; assay type: physicochemical; settings: minimum methanol, room temperature
Method: To examine acid stability of the captioned compound, the compound was dissolved in a minimum volume of methanol and the resulting solution was added to a 6 molar solution of hydrochloric acid.

gastric acid secretion [7] = test: Meal (8% peptone)-stimulated gastric acid secretion in rats; assay type: in vivo, Sprague-Dawley rats; settings: rat, oral gavage, 300 μmol/kg
Method: Fasted, adult (140-240 g), male, Sprague-Dawley rats were fasted for 24 h from food, but not water, and then treated by oral gavage with 1 to 1.5 mL total volume of compound of Formula I (300 μmmol/Kg) on different days. Two hours later, rats were anesthetized with a combination of pentobartital and thiopental, the abdomen was opened and the pylorus was ligated, and tracheal, gastric, and peripheral venous canulas were placed. The stomachs were lavaged with 10 mL 0.9% saline every 10 min. for 30 min and the gastric effluent collected in receptacles to determine the basal acid secretion. Acid output was determined in each gastric effluent sample by back-titration to pH 7.0 using 0.02M NaOH. Then, 5 mL of an 8% peptone meal (pH 5.5) was instilled into the stomachs, mixed, and drained after 10 min each time for 2 hours. Acid output was determined in each gastric effluent containing the peptone meal by back-titration to pH 5.5 using 0.02 M NaOH.

gastric acid secretion [8] = test: Histamine-stimulated gastric acid secretion in anesthetized rats (dose-dependent study); assay type: in vivo, Sprague-Dawley rats; settings: rat, oral gavage, at 3, 30, 300 μmol/kg doses; histamine 5 mg/kg i.v. infusion 2 h
Method: Fasted, adult (140-240 g), male, Sprague-Dawley rats were fasted for 24 h from food, but not water, and then treated by oral gavage with 1 to 1.5 mL total volume of 4 different doses (0.3, 3, 30, and 300 μmol/kg) of each compound on different days. Two hours later, rats were anesthetized with a combination of pentobartital and thiopental, the abdomen was opened and the pylorus was ligated, and tracheal, gastric, and peripheral venous canulas were placed. The stomachs were lavaged with 10 mL 0.9% saline every 10 min. for 30 min and the gastric effluent collected in receptacles. Acid output was determined in each gastric effluent sample by back-titration to pH 7.0 using 0.02M NaOH. Then, 5 mL of an 8% peptone meal (pH 5.5) was instilled into the stomachs, mixed, and drained after 10 min each time for 2 hours. Acid output was determined in each gastric effluent sample by back-titration to pH 7.0 using 0.02 M NaOH. After measuring basal acid output for at least 30 minutes, acid output was then measured during a 2 h intravenous infusion of histamine (5 mg/kg).

gastric acid secretion [9] = test: Suppression of gastric acid secretion in animal model; assay type: in vivo

CN1CCN(c2nsc3nc4ccccc4n23)CC1.Cl.Cl [3-(4-methyl-1-piperazinyl)-1,2,4-thiadiazolo[4,5-a]benzimidazole dihydrochloride]
inhibition of cAMP stimulated acid secretion [1]: completely inhibited
IC50 [2]: 50 µM
inhibition of histamine stimulated acid secretion [3]: completely inhibited

O=C(c1ccccc1)c1nsc2nc3ccccc3n12 [3-(oxophenylmethyl)-1,2,4-thiadiazolo[4,5-a]benzimidazole]
conversion to 2-mercaptobenzimidazole on reaction with phenethyl mercaptan [4]: complete conversion

COc1c(C)cnc(C(=O)c2nsc3nc4ccccc4n23)c1C [3-[(4-methoxy-3,5-dimethyl-2-pyridyl)oxomethyl]-1,2,4-thiadiazolo[4,5-a]benzimidazole]
recovered starting material after reaction with phenethyl mercaptan ([4]; methanol and 0.1 M hydrochloric acid, room temperature, 51 h): 14.6%

Cc1ccc(S(=O)(=O)c2nsc3nc4ccccc4n23)cc1 [3-[(4-methylphenyl)sulfonyl]-1,2,4-thiadiazolo[4,5-a]benzimidazole]
conversion to 2-mercaptobenzimidazole on reaction with phenethyl mercaptan [4]: complete conversion

COc1c(C)cnc(C(O)c2nsc3nc4ccccc4n23)c1C (stereo not shown) [3-[hydroxy(4-methoxy-3,5-dimethyl-2-pyridyl)methyl]-1,2,4-thiadiazolo[4,5-a]benzimidazole]
conversion to 2-mercaptobenzimidazole on reaction with phenethyl mercaptan [4]: complete conversion

CN1CCN(c2nsc3nc4ccccc4n23)CC1 [4-methylpiperazinyl, 3-(4-methyl-1-piperazinyl)-1,2,4-thiadiazolo-[4,5-a]benzimidazole]
t1/2 at pH = 7.0 [5]: 6.7 h

COc1ccc2c(c1)nc1snc(C(=O)c3ncc(C)c(OC)c3C)n12 [7-methoxy-3-[(4-methoxy-3,5-dimethyl-2-pyridyl)oxomethyl]-1,2,4-thiadiazolo[4,5-a]benzimidazole]
solubility in water (Solubility in water): limited solubility in water
acid stability [6]: very stable in acid and was totally recovered after stirring for 48 hours at room temperature
inhibition of meal-stimulated acid secretion (gastric acid secretion [7]): significant (p<0.05) inhibition
acid output after 1 h (gastric acid secretion [7]; 8% peptone stimulated, after 1 h): 20 μmmol/30 min
inhibition of histamine-stimulated acid secretion (gastric acid secretion [8]): significant (p<0.05) inhibition
suppression of gastric acid secretion (gastric acid secretion [9]): active in the suppression of gastric acid secretion

c1ccc(-c2nsc3nc4ccccc4n23)nc1 [Example 2-pyridyl, 3-(2-pyridyl)-1,2,4-thiadiazolo[4,5-a]benzimidazole]
t1/2 at pH = 7.0 [5]: 134 h

CN(C)c1nsc2nc3ccccc3n12 [Me2 N, 3-(dimethylamino)-1,2,4-thiadiazolo[4,5-a]benzimidazole]
time after which reaction with phenethyl mercaptan is complete [4]: ≤ 1 min
t1/2 at pH = 7.0 [5]: 1.5 h

COc1nsc2nc3ccccc3n12 [MeO, 3-methoxy-1,2,4-thiadiazolo[4,5-a]benzimidazole]
time after which reaction with phenethyl mercaptan is complete [4]: ≤ 1 min
t1/2 at pH = 7.0 [5]: 0.31 h

COc1ccc2[nH]c([S+]([O-])Cc3ncc(C)c(OC)c3C)nc2c1 (stereo not shown) [Omeprazole, reference compound]
acid stability [6]: complete decomposition in a few minutes

CC(=O)c1nsc2nc3ccccc3n12 [acetyl, 3-(1-oxoethyl)-1,2,4-thiadiazolo[4,5-a]benzimidazole]
t1/2 at pH = 7.0 [5]: 110 h

Cc1nsc2nc3ccccc3n12 [methyl, 3-methyl-1,2,4-thiadiazolo[4,5-a]benzimidazole]
t1/2 at pH = 7.0 [5]: 59 h

c1ccc2c(c1)nc1snc(N3CCOCC3)n12 [morpholino, 3-(4-morpholinyl)-1,2,4-thiadiazolo[4,5-a]benzimidazole]
t1/2 at pH = 7.0 [5]: 2.4 h

c1ccc2c(c1)nc1snc(CN3CCOCC3)n12 [morpholinomethyl, 3-(morpholinomethyl)-1,2,4-thiadiazolo[4,5-a]benzimidazole]
t1/2 at pH = 7.0 [5]: 98 h

c1ccc(-c2nsc3nc4ccccc4n23)cc1 [phenyl]
t1/2 at pH = 7.0 [5]: 45 h
